Biological target: Cyclin-dependent kinase 4/cyclin D1 (Homo sapiens, UniProt P11802+P24385)
Experiment: Mobility Shift Assay : The purpose CDK4/Cyclin D1 assay is to evaluate the inhibition (% inhibition, Kiapp and Ki values) in the presence of small molecule inhibitors by using a fluorescence based microfluidic mobility shift assay. CDK4/Cyclin D1 catalyzes the production of ADP from ATP that accompanies the phosphoryl transfer to the substrate peptide 5-FAM-Dyrktide (5-FAM-[…]) (SEQ ID NO:1). The mobility shift assay electrophoretically separates the fluorescently labeled peptides (substrate and phosphorylated product) following the kinase reaction. Both substrate and product are measured and the ratio of these values is used to generate % Conversion of substrate to product by the LabChip EZ Reader. […] The reaction was stopped after 195 minutes by the addition of 50 μL of 30 mM EDTA. Ki determinations were made from a plot of the fractional velocity as a function of inhibitor concentration fit to the Morrison equation with the enzyme concentration as a variable.
Format: protein-complex assay

Sequence of Cyclin-dependent kinase 4/cyclin D1 (P11802 whole entry): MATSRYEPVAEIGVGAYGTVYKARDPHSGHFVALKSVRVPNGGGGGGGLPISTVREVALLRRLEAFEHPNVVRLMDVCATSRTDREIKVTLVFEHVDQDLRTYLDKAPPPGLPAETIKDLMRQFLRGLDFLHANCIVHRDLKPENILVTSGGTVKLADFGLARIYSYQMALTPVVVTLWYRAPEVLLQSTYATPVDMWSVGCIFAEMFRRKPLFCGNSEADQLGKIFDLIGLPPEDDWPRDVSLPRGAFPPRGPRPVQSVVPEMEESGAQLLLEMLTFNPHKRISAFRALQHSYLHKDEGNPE
Sequence of Cyclin-dependent kinase 4/cyclin D1 (P24385 whole entry): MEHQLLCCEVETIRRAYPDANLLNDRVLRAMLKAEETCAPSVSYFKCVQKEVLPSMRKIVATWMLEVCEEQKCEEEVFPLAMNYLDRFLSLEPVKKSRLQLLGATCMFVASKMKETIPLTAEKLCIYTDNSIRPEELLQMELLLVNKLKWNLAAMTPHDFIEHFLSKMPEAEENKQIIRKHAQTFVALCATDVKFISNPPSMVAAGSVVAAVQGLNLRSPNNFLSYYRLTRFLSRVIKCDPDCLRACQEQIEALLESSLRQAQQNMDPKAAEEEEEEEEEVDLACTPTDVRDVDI

Question: Which Ki does the source give for CC(C)n1c([C@H](C)O)nc2c(F)cc(-c3cc(N[C@@H]4CCN(S(C)(=O)=O)C[C@H]4O)ncc3Cl)cc21 (single isomer, unassigned) here?
Answer: Its Ki is 0.1 nM.

— ChEMBL document CHEMBL5728923, “Cyclin dependent kinase inhibitors” (2022)
